Assay: xn = mol fraction of the nth substance listed
Conditions: 101.3 kPa, Liquid

COCCOCCO [2-(2-methoxyethoxy)ethanol] + CCOC(C)(C)C
mass density [kg/m3]
Conditions | 293.15 K | 298.15 K | 303.15 K | 308.15 K | 313.15 K
x2 = 0 | 1020.8 | 1016.4 | 1011.83 | 1007.69 | 1003.22
x2 = 0.0501 | 1008.17 | 1003.25 | 998.3 | 993.76 | 988.94
x2 = 0.1 | 995.15 | 990.04 | 984.9 | 980.19 | 975.19
x2 = 0.1459 | 982.68 | 977.43 | 972.25 | 967.46 | 962.35
x2 = 0.1998 | 967.77 | 962.42 | 957.22 | 952.39 | 947.16
x2 = 0.2556 | 951.99 | 946.59 | 941.41 | 936.49 | 931.19
x2 = 0.3031 | 938.38 | 932.91 | 927.71 | 922.72 | 917.37
x2 = 0.3521 | 924.22 | 918.7 | 913.47 | 908.42 | 902.96
x2 = 0.4004 | 910.16 | 904.58 | 899.35 | 894.26 | 888.75
x2 = 0.4511 | 895.34 | 889.68 | 884.41 | 879.28 | 873.72
x2 = 0.4998 | 881.09 | 875.34 | 870.08 | 864.91 | 859.34
x2 = 0.5628 | 862.65 | 856.89 | 851.64 | 846.47 | 840.9
x2 = 0.5997 | 851.96 | 846.15 | 840.91 | 835.75 | 830.21
x2 = 0.6621 | 833.91 | 828.16 | 822.99 | 817.83 | 812.29
x2 = 0.6997 | 823.14 | 817.44 | 812.33 | 807.17 | 801.6
x2 = 0.7411 | 811.55 | 805.81 | 800.69 | 795.54 | 790.02
x2 = 0.7995 | 795.39 | 789.63 | 784.53 | 779.35 | 773.85
x2 = 0.8401 | 784.28 | 778.52 | 773.45 | 768.28 | 762.75
x2 = 0.8998 | 768.16 | 762.41 | 757.39 | 752.25 | 746.7
x2 = 0.9498 | 754.72 | 748.99 | 744.04 | 738.99 | 733.52

COCCOCCOCCO [2-[2-(2-methoxyethoxy)ethoxy]ethanol] + CCOC(C)(C)C
mass density [kg/m3]
Conditions | 293.15 K | 298.15 K | 303.15 K | 308.15 K | 313.15 K
x2 = 0 | 1047.29 | 1042.97 | 1038.65 | 1034.33 | 1030.01
x2 = 0.0504 | 1037.46 | 1032.75 | 1028.05 | 1023.44 | 1018.75
x2 = 0.1 | 1026.36 | 1021.48 | 1016.59 | 1011.83 | 1006.97
x2 = 0.1509 | 1014.18 | 1009.14 | 1004.22 | 999.35 | 994.34
x2 = 0.2025 | 1000.97 | 995.85 | 990.92 | 985.93 | 980.82
x2 = 0.2489 | 988.73 | 983.55 | 978.6 | 973.56 | 968.35
x2 = 0.3007 | 974.54 | 969.31 | 964.34 | 959.27 | 953.99
x2 = 0.3511 | 960.3 | 954.96 | 949.94 | 944.86 | 939.57
x2 = 0.3999 | 946.13 | 940.72 | 935.65 | 930.52 | 925.15
x2 = 0.4508 | 930.95 | 925.44 | 920.33 | 915.15 | 909.71
x2 = 0.5001 | 915.87 | 910.23 | 905.09 | 899.84 | 894.39
x2 = 0.5493 | 900.4 | 894.71 | 889.55 | 884.29 | 878.77
x2 = 0.6 | 884.14 | 878.36 | 873.18 | 867.9 | 862.36
x2 = 0.6503 | 867.65 | 861.88 | 856.69 | 851.4 | 845.82
x2 = 0.6998 | 851.17 | 845.39 | 840.21 | 834.91 | 829.29
x2 = 0.7491 | 834.48 | 828.67 | 823.52 | 818.24 | 812.58
x2 = 0.7999 | 816.94 | 811.16 | 806.01 | 800.74 | 795.06
x2 = 0.8509 | 798.94 | 793.17 | 788.08 | 782.84 | 777.19
x2 = 0.9001 | 780.97 | 775.22 | 770.16 | 764.98 | 759.37
x2 = 0.9498 | 761.89 | 756.2 | 751.24 | 746.17 | 740.68

CCOC(C)(C)C [2-ethoxy-2-methylpropane] + COCCO
mass density [kg/m3]
Conditions | 293.15 K | 298.15 K | 303.15 K | 308.15 K | 313.15 K
x1 = 0.0501 | 950.05 | 944.7 | 939.45 | 934.22 | 928.99
x1 = 0.1 | 936.06 | 930.57 | 925.31 | 919.94 | 914.61
x1 = 0.1508 | 921.99 | 916.4 | 911.08 | 905.73 | 900.29
x1 = 0.2 | 908.51 | 902.92 | 897.66 | 892.25 | 886.78
x1 = 0.2512 | 894.84 | 889.15 | 883.86 | 878.57 | 873.09
x1 = 0.299 | 882.19 | 876.57 | 871.27 | 865.98 | 860.41
x1 = 0.3489 | 869.14 | 863.45 | 858.24 | 852.9 | 847.36
x1 = 0.4 | 856.06 | 850.34 | 845.06 | 839.8 | 834.21
x1 = 0.4503 | 843.79 | 837.98 | 832.77 | 827.45 | 821.87
x1 = 0.499 | 832.46 | 826.63 | 821.36 | 816.1 | 810.51
x1 = 0.55 | 821.14 | 815.31 | 810.08 | 804.81 | 799.19
x1 = 0.61 | 808.56 | 802.72 | 797.49 | 792.22 | 786.6
x1 = 0.6599 | 798.66 | 792.76 | 787.53 | 782.25 | 776.65
x1 = 0.7 | 790.96 | 785.07 | 779.87 | 774.61 | 769.03
x1 = 0.7511 | 781.59 | 775.75 | 770.56 | 765.33 | 759.73
x1 = 0.8 | 773.01 | 767.18 | 762.01 | 756.8 | 751.25
x1 = 0.8489 | 764.84 | 759.04 | 753.94 | 748.76 | 743.21
x1 = 0.9 | 756.5 | 750.81 | 745.76 | 740.66 | 735.16
x1 = 0.949 | 748.89 | 743.23 | 738.32 | 733.24 | 727.78
x1 = 1 | 741.11 | 735.59 | 730.85 | 725.98 | 720.69

Source: the NIST ThermoML archive (doi:10.1016/j.jct.2004.09.014)
